Data: patent US11352393B2, “Myotoxin-neutralizing peptides” (priority 2018, dated 2022)
Square brackets hold non-standard residues; d marks the D form. Ends that are not written are not given here. Peptide text beside a SMILES is read from it.

Key:
myotoxin II [1] = target: T1, myotoxin II (Bothrops asper, UniProt P24605)
myotoxin II [2] = target: T1, myotoxin II; format: binding
[3] = Fluorescence polarization test for self-assembly or aggregation; format: physicochemical; conditions: absence of Myotoxin-II

T1 sequence (P24605 17-137 limits assumed): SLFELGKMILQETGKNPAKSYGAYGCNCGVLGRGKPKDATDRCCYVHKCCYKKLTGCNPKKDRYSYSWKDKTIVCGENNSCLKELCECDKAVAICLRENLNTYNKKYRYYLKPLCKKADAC

Compound | Cytotoxicity of Myotoxin II in presence of peptide (LDH release) (myotoxin II [1]) [%] | ELISA signal at different dilutions, myotoxin II coated versus uncoated wells (myotoxin II [2]) | ELISA signal, myotoxin II coated wells versus uncoated control (myotoxin II [2]) | Signal intensity and signal to noise ratio in cross reactivity ELISA (myotoxin II [2]) | Self-assembling or aggregating ability (artificial increase of FP signal of TAMRA-probe) [3]
CC(C)[C@H](NC(=O)[C@H](Cc1c[nH]c2ccccc12)NC(=O)[C@H](Cc1c[nH]cn1)NC(=O)[C@@H](N)CC(=O)O)C(=O)N[C@@H](Cc1c[nH]c2ccccc12)C(=O)NCC(=O)N[C@@H](Cc1c[nH]c2ccccc12)C(=O)N[C@@H](CC(N)=O)C(=O)N[C@@H](Cc1ccc(O)cc1)C(=O)N[C@@H](CCC(N)=O)C(=O)N[C@@H](Cc1ccc(O)cc1)C(=O)N[C@@H](CCC(N)=O)C(=O)N1CCC[C@H]1C(=O)N[C@@H](CCC(N)=O)C(=O)N[C@@H](CCC(=O)O)C(=O)N[C@@H](Cc1c[nH]c2ccccc12)C(=O)N[C@@H](Cc1c[nH]cn1)C(=O)N[C@H](C(=O)N[C@@H](CCC(=O)O)C(=O)N[C@@H](CO)C(=O)O)[C@@H](C)O [Clone 1.9] (H-DHWVWGWNYQYQPQEWHTES-OH) | 4 | – | – | – | –
DYDRIPDIPMLGGGG [Clone 1.4] | – | low difference for the dilutions of 1/100 and 1/1000 | greatest difference between toxin coated wells and control | – | –
NGYWSSQQYMQQAPMPWRIP [Clone 4.10] | – | highest signals and also the highest signal to noise ratio in all of the dilutions | greatest difference between toxin coated wells and control | highest signal intensity and the best signal to noise ratio | –
QSVTMGPGLITHSPIHTQSK [Clone 1.2] | – | low difference for the dilutions of 1/100 and 1/1000 | greatest difference between toxin coated wells and control | – | –
SWEPYANPTRYKFHDW [Clone 1.8] | – | low difference for the dilutions of 1/100 and 1/1000 | greatest difference between toxin coated wells and control | – | –
VNRMLELKIMDYGGG [Clone 1.1] | – | low difference for the dilutions of 1/100 and 1/1000 | greatest difference between toxin coated wells and control | – | –
Y11D-Y (DHWVWGWNYQ[dY]QPQEWHTES) [Clone Y11D-Y] | – | – | – | – | did not artificially increase the FP signal
